{"source": "paper PMC9019041", "about": "“Structural insights into the peptide selectivity and activation of human neuromedin U receptors” (Nature Communications, 2022)", "origin": "cited, not measured here", "key": {"[1]": {"tested_on": "neuromedin U receptor 1 (NMUR1)", "conditions": "low selectivity; cited from earlier work", "source_text": "(§1) Human neuromedin U (NMU) is a 25-amino-acid endogenous peptide that was first discovered in extracts of the porcine spinal cord with a potent smooth muscle contractile activity. It is also involved in pleiotropic physiological functions, including the regulation of blood pressure, food uptake, nociception, pain perception, bone formation, and immunological responses. More recently, human neuromedin S (NMS), a 33-amino-acid endogenous peptide, was discovered, which shares an identical C-terminal heptapeptide with NMU. Unlike NMU, which is widely distributed in the central nervous system ( ..."}, "[2]": {"tested_on": "neuromedin U receptor 2 (NMUR2)", "conditions": "low selectivity; cited from earlier work", "source_text": "as §1"}}, "note": "Where no end group is shown, it is not given here.", "data": [{"substance": "neuromedin S (ILQRGSGTAAVDFTKKDHTATWGRPFFLFRPRN-NH2) [NMS, Human 33-amino-acid endogenous neuropeptide sharing the C-terminal heptapeptide with NMU; agonist of NMUR1 and NMUR2 (GenScript)]", "values": [{"measurement": "affinity", "setting": "[1]", "value": "sub-nanomolar"}, {"measurement": "affinity", "setting": "[2]", "value": "sub-nanomolar"}]}]}
